{"source": "patent US8912355B2", "about": "“Linoleic phospholipids and uses thereof for inhibiting inflammatory and neurodegenerative processes” (University of Ottawa Heart Institute, priority 2009, dated 2014)", "key": {"[1]": {"tested_on": "NF-κB", "experiment": "TNFα-induced NF-κB phosphorylation in SH-SY5Y cells, Western blot", "format": "cell-based, human", "experimental": "(§1) Cells and Cell Culture—Human neuroblastoma (SH-SY5Y) cells were obtained from American Type Cell Culture (ATCC Number CRL-2266; Manassas, Va., USA). SH-SY5Y was cultured and maintained in F12:DMEM (1:1, v/v) media condition with 10% FBS and 1% penicillin/streptomycin in a 37° C./5% CO2 exchange condition. Passages 3-10 were used in the present study and confluent cells were subjected to stimulation with drugs for indicated times under serum-starved conditions.\n(§2) Preparation of Phospholipid Vesicles—Phospholipid Vesicles in Phosphate-Buffered saline (PBS; 1 mg/mL) were prepared by sonication as previously described (8). Briefly, pure dilinoeoylphosphatidylcholine (DLPC) in chloroform was dried down under N2 and 1 mL of PBS was added by vortexing. The mix was then sonicated (Branson sonicator set at 100% duty cycle and 10% power) for 1 min. The sonicated preparation was incubated for 30 min at 37° C. in a water bath, and samples were resonicated for 5 min at 95% duty cycle and 10% power and filtered before use.\n(§3) Western Blot Analysis—After incubation with drugs for the indicated times and doses, cells were washed twice with ice-cold PBS-T on ice. Cells were lysed by adding buffer [NaF 1 mmol/L, NaCl 5 mmol/L, EDTA 1 mmol/L, NP40 1 mmol/L (Roche Diagnostics, Indianapolis, Ind.), HEPES 10 mmol/L, pepstatin A 1 mg/mL, leupeptin 1 mg/mL, aprotinin 1 mg/mL, Na3VO4 1 mmol/L, and PMSF 1 mmol/L] and total protein was extracted. An equal amount of cell proteins were separated by 12% SDS-PAGE and were analyzed by Western blot using specific antibodies to TNFα, Aβ, APP, phospho-ERK1/2, ERK1/2, phospho-tau, tau, phospho-IκBα, IκBα, phospho-NF-κB and NF-κB. Blots for the similar experiments were also subjected to β-actin for a loading control. Band intensity was analyzed with the Alpha-Innotech Fluor Chem™ HD Imager.\nThe effect of a selective MAPK inhibitor, U0126, on a TNFα induction of MAPK and nuclear factor kappa B (NF-κB) was evaluated. […] TNFα induced a 3-fold increase in NF-κB phosphorylation in SH-SY5Y cells at 5 min after treatment (FIG. 4). DLPC blocked the increase in neuronal NF-κB phosphorylation by ˜50% over 5-30 min post treatment with TNFα."}, "[2]": {"tested_on": "ERK1/2", "experiment": "TNFα- or H2O2-induced ERK1/2 (MAPK) phosphorylation in SH-SY5Y cells, Western blot", "format": "cell-based, human", "conditions": "for TNFα-induced ERK1/2 phosphorylation: TNFα 10 ng/ml", "experimental": "as §1, §2, §3\nExperiments were undertaken to determine if DLPC can block a tumor necrosis factor (TNFα) activation of MAPK in neuroblastoma cells. […]"}, "[3]": {"tested_on": "NF-κB", "experiment": "LPS- or TNFα-induced NF-κB phosphorylation in HepG2 cells, Western blot", "format": "cell-based, human", "conditions": "for TNFα-induced activation of NF-κB (p-NF-κB): DLPC 12 μmol/L, DOPC 12 μmol/L or LA 25 μmol/L for 30 min, TNFα 10 ng/ml, 5 min", "experimental": "HepG2 cells were pre-incubated with DLPC (12 μM) for 30 min. and then incubated with LPS (5 μg/ml) for 24 h in DMEM serum-depleted media. Phospho-IκBα and phospho-NF-kB (p-IκBα and p-NF-κB) expression were analyzed by Western blot.\nas §3, with “Blots for the similar experiments were also subjected to β-actin for a loading control.” left out"}, "[4]": {"tested_on": "tau", "experiment": "Agonist-induced tau phosphorylation (AT8) in SH-SY5Y cells, Western blot", "format": "cell-based, human", "experimental": "as §1, §2, §3\nThe effect of pro-inflammatory and oxidative stress agonists on tau phosphorylation were also evaluated in SH-SY5Y cells."}, "[5]": {"tested_on": "IκBα", "experiment": "TNFα-induced IκBα phosphorylation and degradation in SH-SY5Y cells, Western blot", "format": "cell-based, human", "conditions": "TNFα 10 ng/ml", "experimental": "as §3, with “Blots for the similar experiments were also subjected to β-actin for a loading control.” left out"}, "[6]": {"tested_on": "amyloid precursor protein (APP)", "experiment": "Basal amyloid precursor protein expression in SH-SY5Y cells, Western blot", "format": "cell-based, human", "conditions": "unstimulated SH-SY5Y; DLPC 12 μM, 24 h", "experimental": "SH-SY5Y cells were incubated with DLPC (12 μM) for 24 h and APP expression was analyzed in total cell lysates by Western blotting. Histograms representing densitometry analysis of APP and the values are presented relative to total β-actin control and are expressed as mean±SEM of at least 3 independent experiments. *P<0.05 vs control.\nas §1\nPreparation of Phospholipid Vesicles—Phospholipid Vesicles in Phosphate-Buffered saline (PBS; 1 mg/mL) were prepared by sonication as previously described (8). […]\nWestern Blot Analysis—After incubation with drugs for the indicated times and doses, cells were washed twice with ice-cold PBS-T on ice. […] An equal amount of cell proteins were separated by 12% SDS-PAGE and were analyzed by Western blot using specific antibodies to TNFα, Aβ, APP, phospho-ERK1/2, ERK1/2, phospho-tau, tau, phospho-IκBα, IκBα, phospho-NF-κB and NF-κB. […] Band intensity was analyzed with the Alpha-Innotech Fluor Chem™ HD Imager."}, "[7]": {"tested_on": "IκBα", "experiment": "LPS-induced IκBα phosphorylation in HepG2 cells, Western blot", "format": "cell-based, human", "conditions": "DLPC 12 μM 30 min, LPS 5 μg/ml, 24 h", "experimental": "HepG2 cells were pre-incubated with DLPC (12 μM) for 30 min. and then incubated with LPS (5 μg/ml) for 24 h in DMEM serum-depleted media. Phospho-IκBα and phospho-NF-kB (p-IκBα and p-NF-κB) expression were analyzed by Western blot. Histograms represent densitometry analysis of p-IκBα (A) and p-NF-κB (B) and values are shown relative to β-actin and are expressed as mean±SEM of 3 replicate experiments. *P<0.05 vs LPS alone.\nas §3"}, "[8]": {"tested_on": "amyloid-β", "experiment": "Amyloid-β secretion into conditioned media of SH-SY5Y cells, Western blot", "format": "cell-based, human", "experimental": "SH-SY5Y cells were pretreated with DLPC (12 μM) for 30 minutes and then incubated with LPS (100 ng/mL) for 24 h. Conditioned media from each experiment were collected and subjected to Western blot analysis for amyloid-β. Loading volumes were adjusted relative to total cell protein. Histograms representing densitometry analysis of amyloid-(3 and are expressed as mean±SEM of at least 3 independent experiments. *P<0.001 vs control and **P<0.001 vs LPS alone.\nas §1, with “conditions. […]” for “conditions.”\nAβ quantification—Aβ immuno-quantification was performed in conditioned media after incubation with the inhibitors/agonists and/or phospholipids for the indicated times and doses. […] Band intensities were analyzed using the Spot-densitometer application of the AlphaEaseFC software and values were corrected with total cell proteins in cell lysates. […] Total protein concentration was determined using the BCA protein assay (Pierce, Rockford, Ill.) in cell lysate. […]"}, "[9]": {"tested_on": "TNFα", "experiment": "LPS-induced TNFα expression in HepG2 cells, Western blot", "format": "cell-based, human", "conditions": "DLPC 12 μmol/L 30 min, LPS 5 μg/ml, 24 h", "experimental": "(§4) HepG2 cells were pre-incubated with DLPC (12 μmol/L) for 30 min and then incubated with LPS (5 μg/ml) for 24 h in DMEM serum-depleted media. Cell lysates were analyzed for TNFα expression by Western blot. Values are presented relative to β-actin and are expressed as mean±SEM for 3 replicate experiments. *P<0.05 vs LPS alone.\nas §3"}, "[10]": {"tested_on": "TLR-4", "experiment": "LPS-induced TLR-4 expression in HepG2 cells, Western blot", "format": "cell-based, human", "conditions": "DLPC 12 μmol/L 30 min, LPS 5 μg/ml, 24 h", "experimental": "as §4, with “min.” for “min”, “TLR-4” for “TNFα”\nas §3"}, "[11]": {"tested_on": "NF-κB", "experiment": "LPS and TNFα induction of NF-κB in CaCO-2 cells (unpublished observations)", "format": "cell-based", "conditions": "CaCO-2 cell line; unpublished observations of the inventors"}, "[12]": {"tested_on": "Kupffer cells", "conditions": "Kupffer cells of ethanol-fed rats; cited from earlier work"}, "[13]": {"conditions": "10 μM pretreatment 30 min, TNFα 10 ng/ml"}, "[14]": {"conditions": "inhibitor 10 μM pretreatment 30 min"}, "[15]": {"conditions": "DLPC 12 μM 30 min, TNFα 10 ng/ml"}}, "note": "Entries after “also recorded” stand apart in the source; their conditions may differ.", "data": [{"smiles": "CS/C(N)=C(C#N)/C(C#N)=C(\\N)SC", "note": "[U0124, reference compound]", "values": [{"measurement": "NF-κB phosphorylation status", "setting": "[1]; [13]", "value": "no effect"}, {"measurement": "TNFα-induced ERK1/2 phosphorylation", "setting": "[2]; [14]", "value": "no effect"}]}, {"smiles": "CCCCCCCC/C=C\\CCCCCCCC(=O)OC[C@H](COP(=O)([O-])OCC[N+](C)(C)C)OC(=O)CCCCCCC/C=C\\CCCCCCCC", "note": "[DOPC, dioleoyl phosphatidylcholine, reference compound]", "values": [{"measurement": "TNFα-induced activation of NF-κB (p-NF-κB)", "setting": "[3]", "value": "no impact"}]}, {"smiles": "N#CC(=C(/N)Sc1ccccc1N)/C(C#N)=C(\\N)Sc1ccccc1N", "note": "[U0126, reference compound]", "values": [{"measurement": "reduction of TNFα-induced NF-κB phosphorylation", "setting": "[1]; [13]", "value": "~50", "unit": "%"}, {"measurement": "TNFα-induced phosphorylation of tau (AT8)", "setting": "[4]; U0126 10 μM pretreatment 30 min, TNFα 10 ng/ml, 5 min", "value": "completely blocked"}, {"measurement": "TNFα-induced ERK1/2 phosphorylation", "setting": "[2]; [14]", "value": "blocked the phosphorylation of ERK1/2"}, {"measurement": "reduction of TNFα-induced IκBα phosphorylation", "setting": "[5]; 10 μM pretreatment 30 min", "value": "~50", "unit": "%"}]}, {"smiles": "CCCCC/C=C\\C/C=C\\CCCCCCCC(=O)OC[C@H](COP(=O)([O-])OCC[N+](C)(C)C)OC(=O)CCCCCCC/C=C\\C/C=C\\CCCCC", "note": "[DLPC, dilinoleoylphosphatidylcholine]", "values": [{"measurement": "decrease of basal expression of amyloid precursor protein (APP)", "setting": "[6]", "value": "~25", "unit": "%"}, {"measurement": "LPS-induced IκBα phosphorylation", "setting": "[7]", "value": "inhibits LPS-induced IkBα and NF-κB phosphorylation after 24 h"}, {"measurement": "TNFα-induced NF-κB phosphorylation", "setting": "[1]; [15]", "value": "inhibited TNFα-induced NF-κB phosphorylation"}, {"measurement": "block of the TNFα-induced increase in neuronal NF-κB phosphorylation", "setting": "[1]; DLPC 12 μM, 5-30 min post treatment with TNFα", "value": "~50", "unit": "%"}, {"measurement": "LPS-induced increase in Aβ secretion", "setting": "[8]; DLPC 12 μM 30 min, LPS 100 ng/mL, 24 h", "value": "completely blocked"}, {"measurement": "decrease of basal secretion of Aβ", "setting": "[8]; DLPC 12 μM, 24 h conditioned media", "value": 65, "unit": "%"}, {"measurement": "LPS-induced tau phosphorylation", "setting": "[4]; DLPC 12 μM 30 min, LPS 100 ng/ml", "value": "blocked the effect both agonists and gave rise to tau phosphoylation levels lower than control values by 30 min"}, {"measurement": "TNFα-induced tau phosphorylation", "setting": "[4]; [15]", "value": "blocked the effect both agonists and gave rise to tau phosphoylation levels lower than control values by 30 min"}, {"measurement": "hydrogen peroxide induction of MAPK", "setting": "[2]; DLPC", "value": "block a hydrogen peroxide induction of MAPK"}, {"measurement": "TNFα-induced ERK1/2 phosphorylation", "setting": "[2]; DLPC 12 μM pre-incubated 30 min", "value": "block ERK1/2 phosphorylation for 30 min"}, {"measurement": "LPS-induced increase in TNFα expression", "setting": "[9]", "value": "inhibits an LPS-induced increase in TNFα expression"}, {"measurement": "IκBα degradation", "setting": "[5]; DLPC 12 μM 30 min", "value": "prevented IkBα degradation"}, {"measurement": "TNFα-induced IκBα phosphorylation", "setting": "[5]; DLPC 12 μM 30 min", "value": "blocked TNFα-induced IkBα phosphorylation"}, {"measurement": "LPS-induced increase in TLR-4 expression", "setting": "[10]", "value": "blocks an LPS-induced increase in TLR-4 expression"}, {"measurement": "LPS and TNFα induction of NF-κB", "setting": "[11]", "value": "can block an LPS and TNFα induction of NF-κB"}, {"measurement": "LPS-induced NF-κB phosphorylation / activation", "setting": "[3]; DLPC 12 μM 30 min, LPS 5 μg/ml, 24 h", "value": "inhibits LPS-induced IkBα and NF-κB phosphorylation after 24 h; also recorded: inhibits activation of NF-κB in HepG2 cells for up to 24 h"}, {"measurement": "TNFα-induced activation of NF-κB (p-NF-κB)", "setting": "[3]", "value": "block activation of NF-κB"}, {"measurement": "NF-κB activation", "setting": "[12]", "value": "decreases induction of TNFα secretion and NF-κB activation"}, {"measurement": "induction of TNFα secretion", "setting": "[12]", "value": "decreases induction of TNFα secretion"}]}]}
